According to ChEMBL document CHEMBL1201862, “PubChem BioAssay data set” (2004):
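Dose response: 5 concentrations. Exposure: 48 h. Format: 96-well plates. Endpoint: linear interpolation; highest concentration if not reached. GI50 marks 50% less growth.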 Activity calls are given as the source filed them. Rule as the data show it: active = GI50 up to about 1.1 µM and inactive = higher.

Legend:
Assay in all cases: NCI anticancer screen, dose series, 48 h
[1] = test system: CCRF-CEM
[2] = test system: NCI-H460
[3] = test system: HT-29
[4] = test system: MOLT-4
[5] = test system: T47D
[6] = test system: A498
[7] = test system: KM12
[8] = test system: HCT-116
[9] = test system: CAKI-1
[10] = test system: Malme-3M
[11] = test system: OVCAR-5
[12] = test system: UO-31
[13] = test system: 786-0
[14] = test system: NCI-H23
[15] = test system: MDA-MB-435
[16] = test system: A549
[17] = test system: OVCAR-8
[18] = test system: HOP-92
[19] = test system: NCI-H226
[20] = test system: SF-295
[21] = test system: ACHN
[22] = test system: MCF7
[23] = test system: RPMI-8226
[24] = test system: HOP-62
[25] = test system: MDA-N
[26] = test system: EKVX
[27] = test system: NCI-H522
[28] = test system: OVCAR-3
[29] = test system: MDA-MB-231
[30] = test system: SN12C
[31] = test system: TK-10
[32] = test system: SW-620
[33] = test system: DU-145
[34] = test system: OVCAR-4
[35] = test system: SNB-19
[36] = test system: SK-MEL-28
[37] = test system: RXF 393
[38] = test system: U-251
[39] = test system: K562
[40] = test system: IGROV-1
[41] = test system: UACC-62
[42] = test system: SK-MEL-5
[43] = test system: HCT-15
[44] = test system: BT-549
[45] = test system: SK-MEL-2
[46] = test system: PC-3
[47] = test system: LOX IMVI
[48] = test system: UACC-257
[49] = test system: NCI/ADR-RES
[50] = test system: M14
[51] = test system: SK-OV-3
[52] = test system: HCC 2998
[53] = test system: COLO 205
[54] = test system: SR
[55] = test system: SF-539
[56] = test system: SF-268
[57] = test system: HL-60
[58] = test system: Hs-578T
[59] = test system: SNB-75

CC(C)CCC[C@@H](C)[C@H]1CC[C@H]2C3=C[C@H](OS(=O)(=O)O)[C@@]4(O)C[C@@H](O)CC[C@]4(C)[C@@]3(O)CC[C@]12C
GI50 [1]: 49.2 µM (inactive) | GI50 [2]: > 100 µM (inactive) | GI50 [3]: 42 µM (inactive) | GI50 [4]: 42.7 µM (inactive) | GI50 [5]: 83.6 µM (inactive) | GI50 [6]: > 100 µM (inactive) | GI50 [7]: 84.5 µM (inactive) | GI50 [8]: 98.9 µM (inactive) | GI50 [9]: > 100 µM (inactive) | GI50 [10]: > 100 µM (inactive) | GI50 [11]: > 100 µM (inactive) | GI50 [12]: > 100 µM (inactive) | GI50 [13]: > 100 µM (inactive) | GI50 [14]: > 100 µM (inactive) | GI50 [15]: > 100 µM (inactive) | GI50 [16]: > 100 µM (inactive) | GI50 [17]: > 100 µM (inactive) | GI50 [18]: > 100 µM (inactive) | GI50 [19]: 60 µM (inactive) | GI50 [20]: > 100 µM (inactive) | GI50 [21]: > 100 µM (inactive) | GI50 [22]: > 100 µM (inactive) | GI50 [23]: > 100 µM (inactive) | GI50 [24]: > 100 µM (inactive) | GI50 [25]: > 100 µM (inactive) | GI50 [26]: > 100 µM (inactive) | GI50 [27]: > 100 µM (inactive) | GI50 [28]: > 100 µM (inactive) | GI50 [29]: > 100 µM (inactive) | GI50 [30]: > 100 µM (inactive) | GI50 [31]: > 100 µM (inactive) | GI50 [32]: > 100 µM (inactive) | GI50 [33]: > 100 µM (inactive) | GI50 [34]: > 100 µM (inactive) | GI50 [35]: > 100 µM (inactive) | GI50 [36]: > 100 µM (inactive) | GI50 [37]: > 100 µM (inactive) | GI50 [38]: > 100 µM (inactive) | GI50 [39]: 45.6 µM (inactive) | GI50 [40]: > 100 µM (inactive) | GI50 [41]: > 100 µM (inactive) | GI50 [42]: > 100 µM (inactive) | GI50 [43]: > 100 µM | GI50 [44]: > 100 µM (inactive) | GI50 [45]: > 100 µM (inactive) | GI50 [46]: > 100 µM (inactive) | GI50 [47]: > 100 µM (inactive) | GI50 [48]: > 100 µM (inactive) | GI50 [49]: > 100 µM (inactive) | GI50 [50]: > 100 µM (inactive) | GI50 [51]: > 100 µM (inactive) | GI50 [52]: > 100 µM (inactive) | GI50 [53]: > 100 µM (inactive) | GI50 [54]: 68.5 µM (inactive) | GI50 [55]: > 100 µM (inactive) | GI50 [56]: > 100 µM (inactive)

O=C(Nc1ccc([As](=O)(O)O)cc1)Nc1cccc(Cl)c1Cl
GI50 [2]: > 100 µM (inactive) | GI50 [3]: > 100 µM (inactive) | GI50 [6]: > 100 µM (inactive) | GI50 [7]: > 100 µM (inactive) | GI50 [8]: > 100 µM (inactive) | GI50 [57]: > 100 µM (inactive) | GI50 [9]: > 100 µM (inactive) | GI50 [10]: > 100 µM (inactive) | GI50 [11]: > 100 µM (inactive) | GI50 [12]: 40.6 µM (inactive) | GI50 [13]: 46.1 µM (inactive) | GI50 [14]: > 100 µM (inactive) | GI50 [58]: 20.5 µM (inactive) | GI50 [15]: > 100 µM (inactive) | GI50 [16]: > 100 µM (inactive) | GI50 [17]: 46.2 µM (inactive) | GI50 [18]: 77.8 µM (inactive) | GI50 [19]: > 100 µM (inactive) | GI50 [20]: 65.5 µM (inactive) | GI50 [21]: > 100 µM (inactive) | GI50 [22]: > 100 µM (inactive) | GI50 [23]: > 100 µM (inactive) | GI50 [24]: 70 µM (inactive) | GI50 [25]: > 100 µM (inactive) | GI50 [26]: 79.8 µM (inactive) | GI50 [27]: > 100 µM (inactive) | GI50 [28]: > 100 µM (inactive) | GI50 [29]: 23.3 µM (inactive) | GI50 [30]: > 100 µM (inactive) | GI50 [31]: 89.1 µM (inactive) | GI50 [32]: > 100 µM (inactive) | GI50 [33]: > 100 µM (inactive) | GI50 [34]: 18.7 µM (inactive) | GI50 [35]: 86.1 µM (inactive) | GI50 [36]: > 100 µM (inactive) | GI50 [37]: 22.2 µM (inactive) | GI50 [38]: 36.5 µM (inactive) | GI50 [39]: 97.5 µM (inactive) | GI50 [40]: > 100 µM (inactive) | GI50 [41]: > 100 µM (inactive) | GI50 [42]: > 100 µM (inactive) | GI50 [43]: > 100 µM | GI50 [44]: > 100 µM (inactive) | GI50 [59]: 21.7 µM (inactive) | GI50 [45]: > 100 µM (inactive) | GI50 [46]: 83.9 µM (inactive) | GI50 [47]: > 100 µM (inactive) | GI50 [48]: > 100 µM (inactive) | GI50 [49]: > 100 µM (inactive) | GI50 [50]: > 100 µM (inactive) | GI50 [51]: > 100 µM (inactive) | GI50 [52]: > 100 µM (inactive) | GI50 [53]: > 100 µM (inactive) | GI50 [54]: 17 µM (inactive) | GI50 [55]: > 100 µM (inactive) | GI50 [56]: 45.7 µM (inactive)
